The record followed here is patent US20170000133A1, “BENZOXABOROLE FUNGICIDES” (SYNGENTA PARTICIPATIONS AG, priority 2013, published 2017).

SMILES strings stand for the structures. Some results are limits rather than exact numbers.

For data set [1], the system named is Thanatephorus cucumeris (Rhizoctonia solani). Nature of the data set: Thanatephorus cucumeris (Rhizoctonia solani) / liquid culture (foot rot, damping-off). The format is cell-based. The conditions noted are these: PDB potato dextrose broth, 24° C., 3-4 days after application, read-out: disease control (inhibition of growth determined photometrically). The gist of the method: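 Mycelial fragments from fresh liquid culture were suspended in potato dextrose broth and added to compound in DMSO at 200 ppm. After 3-4 days at 24 °C, growth inhibition was measured photometrically.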

For data set [2], the system named is Glomerella lagenarium (Colletotrichum lagenarium). In words: Glomerella lagenarium (Colletotrichum lagenarium) / liquid culture (anthracnose). As to conditions: Colletotrichum orbiculare, PDB potato dextrose broth, 24° C., 3-4 days after application, read-out: disease control (inhibition of growth measured photometrically). The format is cell-based. A digest of the protocol: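 Conidia of G. lagenarium from cryogenic storage were suspended in potato dextrose broth and added to test compound in DMSO at 200 ppm. Plates were incubated at 24° C, and growth inhibition was read photometrically 3-4 days after application.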

For the next data set, the system named is Pythium ultimum. In words: Pythium ultimum / liquid culture (seedling damping off). The format is cell-based. As to conditions: Globisporangium ultimum; 200 ppm; potato dextrose broth, 24° C., 2-3 days after application; read-out: disease control (inhibition of growth determined photometrically).
The subject of another data set is Gaeumannomyces graminis. Nature of the data set: Gaeumannomyces graminis / liquid culture (take-all of cereals). The format is cell-based. The conditions noted are these: PDB potato dextrose broth, 24° C., 4-5 days after application, read-out: disease control (inhibition of growth determined photometrically). A digest of the protocol:
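Cryo-stored mycelial fragments in potato dextrose broth exposed to compound in DMSO at 200 ppm. Incubated at 24 °C; growth inhibition read photometrically 4–5 days after application.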

Data set [3] has as its system Botryotinia fuckeliana (Botrytis cinerea). Nature of the data set: Botryotinia fuckeliana (Botrytis cinerea) / liquid culture (gray mould). The format is cell-based. The conditions noted are these: Vogels broth, 24° C., 3-4 days after application, read-out: disease control (inhibition of growth determined photometrically). As to the method:
10. Botryotinia fuckeliana (Botrytis cinerea)/Liquid Culture (Gray Mould): Conidia of the fungus from cryogenic storage were directly mixed into nutrient broth (Vogels broth). After placing a DMSO solution of test compound into a 96-well microtiter plate at an application rate of 200 ppm, the nutrient broth containing the fungal spores was added. The test plates were incubated at 24° C. and the inhibition of growth was determined photometrically 3-4 days after application.

Data set [4] relates to Monographella nivalis (Microdochium nivale). In words: Monographella nivalis (Microdochium nivale) / liquid culture (foot rot cereals). The format is cell-based. As to conditions: PDB potato dextrose broth, 24° C., 4-5 days after application, read-out: disease control (inhibition of growth determined photometrically).
In data set [5] the test system is Mycosphaerella graminicola (Septoria tritici). Nature of the data set: Mycosphaerella graminicola (Septoria tritici) / liquid culture (Septoria blotch). The conditions noted are these: Zymoseptoria tritici, PDB potato dextrose broth, 24° C., 4-5 days after application, read-out: disease control (inhibition of growth determined photometrically). The format is cell-based. A digest of the protocol:
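Conidia from cryostorage were suspended in potato dextrose broth and added to test compound in DMSO at 200 ppm in microtiter wells. Plates were incubated at 24° C and growth inhibition measured photometrically 4-5 days after application.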

A further data set has as its system Plasmopara viticola. In words: whole plant or invertebrate. The class given is in vivo. The conditions noted are these: foliar, read-out: disease control.
Data set [6] deals with Mycosphaerella arachidis (Cercospora arachidicola). In words: Mycosphaerella arachidis (Cercospora arachidicola) / liquid culture (early leaf spot). The format is cell-based. As to conditions: PDB potato dextrose broth, 24° C., 4-5 days after application, read-out: disease control (inhibition of growth determined photometrically). The gist of the method: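 Conidia from cryogenic storage mixed into potato dextrose broth and added to compound at 200 ppm in DMSO. Incubation at 24° C.; growth inhibition read photometrically 4-5 days after application.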

For another data set, the system named is Fusarium culmorum. In words: microbe, parasite or virus in culture. The class given is cell-based. The conditions noted are these: read-out: disease control (inhibition of growth determined visually).
A further data set has as its system Sclerotinia sclerotiorum. Nature of the data set: Sclerotinia sclerotiorum / liquid culture (cottony rot). The class given is cell-based. As to conditions: PDB potato dextrose broth, 24° C., 3-4 days after application, read-out: disease control (inhibition of growth determined visually). As for the experimental part: 18. Sclerotinia sclerotiorum/Liquid Culture (Cottony Rot): Mycelia fragments of a newly grown liquid culture of the fungus were directly mixed into nutrient broth (PDB potato dextrose broth). After placing a (DMSO) solution of the test compounds into a microtiter plate (96-well format) the nutrient broth containing the fungal material was added. The test plates were incubated at 24° C. and the inhibition of growth was determined visually 3-4 days after application.

Another data set relates to Phytophthora infestans. Nature of the data set: whole plant or invertebrate. The class given is in vivo. The conditions noted are these: in Solanum lycopersicum, foliar, read-out: disease control.
The subject of data set [7] is Puccinia recondita f. sp. tritici. Nature of the data set: Puccinia recondita f. sp. tritici / wheat / leaf disc preventative (brown rust). The format is in vivo. The conditions noted are these: foliar, wheat leaf segments cv Kanzler, inoculated 1 day after application, assessed 7-9 days after application, read-out: disease control. An excerpt:
3. Puccinia recondita f. sp. tritici/Wheat/Leaf Disc Preventative (Brown Rust): Wheat leaf segments cultivated variety (cv) Kanzler were placed on agar in 24-well plates and sprayed with formulated test compound diluted in water at an application rate of 200 ppm. The leaf disks were inoculated with a spore suspension of the fungus 1 day after application.

Take `O=C(OCc1cccc(F)c1)c1cc2c(cc1F)COB2O` [Compound 434]: the inhibition at 200 ppm (in data set [1]; in data set [2]; in the data set on Pythium ultimum; in the data set with Gaeumannomyces graminis; in [3]; in [4]) was at least 80% throughout. Moreover, the inhibition at 200 ppm in data set [5] and in data set [6] was at least 80% throughout. The pest or weed control at 200 ppm with Plasmopara viticola is at least 80%.

With `O=C(OCC#Cc1ccccc1)c1cc2c(cc1F)COB2O` [Compound 422], the inhibition at 200 ppm (in data set [1]; in the data set on Pythium ultimum; with Fusarium culmorum; with Gaeumannomyces graminis; in [3]; in data set [4]) was at least 80% in each case. The inhibition at 200 ppm in data set [5] and in data set [6] was at least 80% in each case.

On to `O=C(OCC#Cc1ccccc1)c1ccc2c(c1)B(O)OC2` [Compound 359], for which the inhibition at 200 ppm (in data set [1]; in the data set with Sclerotinia sclerotiorum; in the data set with Pythium ultimum; in the data set with Fusarium culmorum; in the data set with Gaeumannomyces graminis; in data set [3]) was at least 80% each time. In addition, the inhibition at 200 ppm in data set [4], in data set [5] and in data set [6] was at least 80% each time. The pest or weed control at 200 ppm in the data set on Plasmopara viticola is at least 80%.

As to `CC#CCOC(=O)c1ccc2c(c1)B(O)OC2` [Compound 323], the melting point lay within 154 to 155 °C. The inhibition at 200 ppm in data set [1] was at least 80%. Further, in the data set on Pythium ultimum, the inhibition at 200 ppm is at least 80%. The inhibition at 200 ppm in the data set on Fusarium culmorum is at least 80%. Besides, the inhibition at 200 ppm in the data set with Gaeumannomyces graminis was at least 80%. For the same compound, the inhibition at 200 ppm in [3] was at least 80%. In addition, in [4], the inhibition at 200 ppm is at least 80%. Moreover, in [5], the inhibition at 200 ppm was at least 80%. Moreover, the pest or weed control at 200 ppm in the data set on Plasmopara viticola is at least 80%. Also, in the data set with Phytophthora infestans, the pest or weed control at 200 ppm is at least 80%. Also, the inhibition at 200 ppm in data set [6] is at least 80%.

As to `O=C(OCC1CCC1)c1cc2c(cc1Cl)COB2O` [Compound 225], the melting point is 115 to 117 °C. Further, the inhibition at 200 ppm in data set [1] was at least 80%. Moreover, the inhibition at 200 ppm in data set [2] is at least 80%. Also, in data set [7], the pest or weed control at 200 ppm was at least 80%. Also, in the data set with Pythium ultimum, the inhibition at 200 ppm was at least 80%. Further, the inhibition at 200 ppm in the data set on Gaeumannomyces graminis is at least 80%. For the same compound, in [3], the inhibition at 200 ppm is at least 80%. The inhibition at 200 ppm in [4] was at least 80%. Besides, the inhibition at 200 ppm in data set [5] is at least 80%. Moreover, the inhibition at 200 ppm in data set [6] is at least 80%.

As to `C=CCOC(=O)c1cc2c(cc1Cl)COB2O` [Compound 215], the inhibition at 200 ppm (in data set [1]; in [2]; with Sclerotinia sclerotiorum; in the data set on Pythium ultimum; with Fusarium culmorum; with Gaeumannomyces graminis) was at least 80% throughout. The inhibition at 200 ppm in data set [4], in data set [5] and in data set [6] was at least 80% in each case.

For the compound `COC(COC(=O)c1cc2c(cc1Cl)COB2O)OC` [Compound 449], the melting point was 122 to 124 °C. Besides, in [2], the inhibition at 200 ppm was at least 80%. Also, the inhibition at 200 ppm in the data set on Sclerotinia sclerotiorum was at least 80%. The inhibition at 200 ppm in the data set on Pythium ultimum is at least 80%. In the data set with Fusarium culmorum, the inhibition at 200 ppm is at least 80%. The inhibition at 200 ppm in the data set on Gaeumannomyces graminis is at least 80%. The inhibition at 200 ppm in data set [4] was at least 80%. The inhibition at 200 ppm in data set [5] is at least 80%. For the same compound, the inhibition at 200 ppm in data set [6] is at least 80%.

Take `O=C(OCc1cccc(F)c1)c1ccc2c(c1)B(O)OC2` [Compound 375]: the melting point was in the range of 125 to 127 °C. Besides, the inhibition at 200 ppm in data set [1] is at least 80%. In addition, the inhibition at 200 ppm in data set [2] is at least 80%. Also, the inhibition at 200 ppm in the data set with Sclerotinia sclerotiorum was at least 80%. For the same compound, in the data set with Pythium ultimum, the inhibition at 200 ppm is at least 80%. Further, the inhibition at 200 ppm in the data set with Fusarium culmorum is at least 80%. Moreover, the inhibition at 200 ppm with Gaeumannomyces graminis was at least 80%. Further, the inhibition at 200 ppm in data set [3] is at least 80%. Besides, in data set [4], the inhibition at 200 ppm was at least 80%. For the same compound, in data set [5], the inhibition at 200 ppm was at least 80%. For the same compound, the inhibition at 200 ppm in data set [6] is at least 80%.

For the compound `O=C(OCCc1c(Cl)cccc1Cl)c1ccc2c(c1)B(O)OC2` [Compound 373], the inhibition at 200 ppm (in the data set with Fusarium culmorum; in the data set with Gaeumannomyces graminis; in data set [3]; in data set [4]; in [5]) was at least 80% throughout. Further, the pest or weed control at 200 ppm in the data set with Plasmopara viticola was at least 80%.

On to `COC(=O)C#CCOC(=O)c1ccc2c(c1)B(O)OC2` [Compound 361], for which the inhibition at 200 ppm (in data set [1]; in [2]; in the data set on Sclerotinia sclerotiorum; in the data set with Pythium ultimum; in the data set on Fusarium culmorum; with Gaeumannomyces graminis) was at least 80% each time. Besides, the inhibition at 200 ppm in data set [3], in data set [4], in data set [5] and in [6] was at least 80% throughout. In addition, the pest or weed control at 200 ppm in the data set on Plasmopara viticola was at least 80%.

For `CCC#CCOC(=O)c1cc2c(cc1F)COB2O` [Compound 379], the inhibition at 200 ppm (in data set [1]; in data set [2]; in the data set with Sclerotinia sclerotiorum; in the data set on Pythium ultimum; in the data set on Fusarium culmorum; with Gaeumannomyces graminis) was at least 80% throughout. Further, the inhibition at 200 ppm in data set [4], in data set [5] and in data set [6] was at least 80% throughout. The pest or weed control at 200 ppm in the data set on Plasmopara viticola is at least 80%.

For the compound `CCCCCCCOC(=O)c1ccc2c(c1)B(O)OC2` [Compound 317], the inhibition at 200 ppm (in data set [1]; in data set [2]; in the data set with Pythium ultimum; with Gaeumannomyces graminis; in data set [3]; in [4]) was at least 80% in each case. The inhibition at 200 ppm in data set [5] and in [6] was at least 80% each time. In addition, the pest or weed control at 200 ppm (in data set [7]; in the data set with Plasmopara viticola) was at least 80% each time.

Take `Cc1csc(NC(=O)c2cc3c(cc2Cl)COB3O)n1` [Compound 147]: the inhibition at 200 ppm (in data set [2]; with Sclerotinia sclerotiorum; in the data set on Pythium ultimum; in data set [4]; in data set [6]) was at least 80% in each case.

On to `C=CCC(OC(=O)c1cc2c(cc1F)COB2O)C(=O)OC` (stereo not drawn) [Compound 410], for which the inhibition at 200 ppm (in data set [1]; in the data set with Sclerotinia sclerotiorum; in the data set with Pythium ultimum; in the data set with Gaeumannomyces graminis; in [4]) was at least 80% in each case. The pest or weed control at 200 ppm with Plasmopara viticola is at least 80%.

`C=CCCOC(=O)c1cc2c(cc1F)COB2O` [Compound 389] yielded a melting point of 107 to 109 °C. The inhibition at 200 ppm in data set [1] is at least 80%. The inhibition at 200 ppm in data set [2] was at least 80%. For the same compound, in the data set on Sclerotinia sclerotiorum, the inhibition at 200 ppm was at least 80%. In addition, in the data set with Pythium ultimum, the inhibition at 200 ppm was at least 80%. The inhibition at 200 ppm in the data set with Fusarium culmorum was at least 80%. Further, the inhibition at 200 ppm in the data set with Gaeumannomyces graminis is at least 80%. For the same compound, the inhibition at 200 ppm in [4] was at least 80%. The inhibition at 200 ppm in data set [5] is at least 80%. The inhibition at 200 ppm in data set [6] is at least 80%.
